Results as given in patent publication US12171230B2, “Herbicidal compositions” (Bayer Aktiengesellschaft, priority 2018, dated 2024).
Several values for one entry are separate records, joined by “and”; a condition that tells them apart may be missing. Equal values may be shown once.

What was measured:
Format in all cases: in vivo
Brachiaria plantaginea = assay: Post-emergence herbicidal action against Brachiaria plantaginea; details: A3/Asulam; post-emergence; g of a.i./ha by row: 720, 100, 100 + 720
Excerpt: (§1) The following abbreviations are used in the description and the tables that follow: • g of a.i./ha=grams of active substance (active ingredient) (=100% active compound) per hectare; • The sum total of the effects of the individual applications is reported under E^A; • expected values according to Colby are each reported under E^C.
(§2) The rating period is reported in days after application (DAT).

Chenopodium album = assay: Post-emergence herbicidal action against Chenopodium album
Method: When the observed efficacies exceed the formal sum total of the values of the tests with individual applications, they also exceed the expected value according to Colby, which is calculated using the formula below and is likewise regarded as an indication of synergism (cf. S. R. Colby; in Weeds 15 (1967) p. 20 to 22): E^C=A+B−([…])
Here: • A=efficacy of the active compound (A) in % at an application rate of a g a.i./ha; • B=efficacy of the active compound (B) in % at an application rate of b g a.i./ha; • E^C=expected value of the effect of the combination (A)+(B) in % at the combined application rate a+b g a.i./ha.
Seeds or rhizome pieces of mono- and dicotyledonous weeds are placed in sandy loam in pots, covered with soil and grown in a greenhouse under good growth conditions (temperature, air humidity, water supply). Three weeks after sowing, the test plants were treated at the three-leaf stage with the compositions according to the invention. The compositions according to the invention formulated as spray powders or as emulsion concentrates were sprayed onto the green plant parts in various dosages with an application rate of 300 to 800 l/ha of water (equivalent). After the test plants have been left to stand in the greenhouse under optimal growth conditions for about 3 to 4 weeks, the action of the preparations is scored visually in comparison to untreated controls. The compositions according to the invention also have good post-emergence herbicidal activity against a broad spectrum of economically important gramineous and broadleaf weeds.

Phalaris minor = assay: Post-emergence herbicidal action against Phalaris minor
Summary of the method: (§3)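 Dose unit: g a.i./ha (100% active). Scoring in days after application (DAT). E^A = sum of single-application effects; E^C = Colby expected value.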

Veronica hederifolia = assay: Post-emergence herbicidal action against Veronica hederifolia
Excerpt: as §1, §2

Lamium purpureum = assay: Post-emergence herbicidal action against Lamium purpureum
Summary of the method: (§4)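 Post-emergence foliar application: sandy-loam pots, greenhouse, treatment at three-leaf stage, 300–800 l/ha spray volume. Readout is visual % effect at 3–4 weeks, compared with the Colby expected value for mixtures.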

Poa annua = assay: Post-emergence herbicidal action against Poa annua
Summary of the method: as §4

Abutilon theophrasti = assay: Post-emergence herbicidal action against Abutilon theophrasti
Summary of the method: as §3

Matricaria inodora = assay: Post-emergence herbicidal action against Matricaria inodora; details: for Herbicidal action: 1 g a.i./ha
[1] = post-emergence, 14 DAT, 4 g of a.i./ha
[2] = post-emergence, 14 DAT, 16 g of a.i./ha

In the case of `C=C[C@]1(C(=O)N[C@H]2CO[C@@H](C(=O)OC)C2)CC(c2cc(F)cc(F)c2)=NO1` (relative stereo) [Compound A3, methyl rel-(2R,4R)-4-[[(5S)-3-(3,5-difluorophenyl)-5-vinyl-4H-isoxazole-5-carbonyl]amino]tetrahydrofuran-2-carboxylate], the “Herbicidal action 28 DAT against Brachiaria plantaginea” value (Brachiaria plantaginea) was 82%, the “Herbicidal action 27 DAT [%] against Chenopodium album” value (Chenopodium album; 100 g of a.i./ha) was 85% and the “Herbicidal action 27 DAT against Chenopodium album” value (Chenopodium album; g of a.i./ha: 180, 100, 100 + 180) was 85%. The “Herbicidal action 14 DAT against Phalaris minor” value (Phalaris minor; 1 g of a.i./ha) was 10%, the “Herbicidal action 28 DAT against Phalaris minor” value (Phalaris minor; 1 g of a.i./ha) was 0% and 10% and the “Herbicidal action 28 DAT against Phalaris minor” value (Phalaris minor; 4 g of a.i./ha) was 70%. For the same compound, the “Herbicidal action in [%] 14 DAT against Phalaris minor” value (Phalaris minor; 1 g of a.i./ha) was 20%, the “Herbicidal action in [%] 14 DAT against Phalaris minor” value (Phalaris minor; 4 g of a.i./ha) was 85% and the “Herbicidal action in [%] 14 DAT against Phalaris minor” value (Phalaris minor; 16 g of a.i./ha) was 85%. The “Herbicidal action 28 DAT against Phalaris minor” value (Phalaris minor; 16 g of a.i./ha) was 40%, the “Herbicidal action in [%] 28 DAT against Phalaris minor” value (Phalaris minor; 1 g of a.i./ha) was 10% and the “Herbicidal action in [%] 28 DAT against Phalaris minor” value (Phalaris minor; 16 g of a.i./ha) was 85%. For the same compound, the “Herbicidal action in [%] 14 DAT against Veronica hederifolia” value (Veronica hederifolia; 1 g of a.i./ha) was 10%, the “Herbicidal action in [%] 14 DAT against Veronica hederifolia” value (Veronica hederifolia; 4 g of a.i./ha) was 30% and the “Herbicidal action 14 DAT against Veronica hederifolia” value (Veronica hederifolia; 16 g of a.i./ha) was 40%. For the same compound, the “Herbicidal action 14 DAT against Veronica hederifolia” value (Veronica hederifolia; g of a.i./ha: 16, 270, 16 + 270) was 40%, the “Herbicidal action 14 DAT against Lamium purpureum L.” value (Lamium purpureum; 1 g of a.i./ha) was 65% and the “Herbicidal action 28 DAT against Lamium purpureum L.” value (Lamium purpureum; 1 g of a.i./ha) was 25%. For the same compound, the “Herbicidal action in [%] 14 DAT against Lamium purpureum L.” value (Lamium purpureum; 1 g of a.i./ha) was 65%, the “Herbicidal action in [%] 28 DAT against Lamium purpureum L.” value (Lamium purpureum; 1 g of a.i./ha) was 25% and the “Herbicidal action in [%] 28 DAT against Lamium purpureum L.” value (Lamium purpureum; 4 g of a.i./ha) was 40%. For the same compound, the “Herbicidal action against Lamium purpureum L.” value (Lamium purpureum; 14 DAT, 1 g of a.i./ha) was 65%, the “Herbicidal action against Lamium purpureum L.” value (Lamium purpureum; 28 DAT, 1 g of a.i./ha) was 25% and the “Herbicidal action against Lamium purpureum L.” value (Lamium purpureum; 28 DAT, 4 g of a.i./ha) was 40%. The “Herbicidal action 32 DAT [%] against Lamium purpureum” value (Lamium purpureum; 100 g of a.i./ha, post-emergence) was 50%, the “Herbicidal action 14 DAT against Lamium purpureum L.” value (Lamium purpureum; (Z61) post-emergence, g of a.i./ha: 1, 270, 90, 1 + 270, 1 + 90) was 65% and the “Herbicidal action 28 DAT against Poa annua L.” value (Poa annua; 1 g of a.i./ha) was 15%. The “Herbicidal action in [%] 14 DAT against Poa annua L.” value (Poa annua; 1 g of a.i./ha) was 40% and 50%, the “Herbicidal action in [%] 28 DAT against Poa annua L.” value (Poa annua; 1 g of a.i./ha) was 15% and 20% and the “Herbicidal action in [%] 28 DAT against Poa annua” value (Poa annua; 1 g of a.i./ha, post-emergence) was 30%. For the same compound, the “Herbicidal action in [%] 14 DAT against Poa annua L.” value (Poa annua; 4 g of a.i./ha) was 85%, the “Herbicidal action in [%] 28 DAT against Poa annua L.” value (Poa annua; 4 g of a.i./ha) was 80% and the Herbicidal action (Poa annua; 14 DAT, 1 g a.i./ha) was 50%. For the same compound, the “Herbicidal action against Poa annua L.” value (Poa annua; 14 DAT, 1 g of a.i./ha) was 40%, the Herbicidal action (Poa annua; 14 DAT, 4 g a.i./ha) was 85% and the “Herbicidal action against Poa annua L.” value (Poa annua; 14 DAT, 16 g of a.i./ha) was 85%. The “Herbicidal action 28 DAT against Poa annua L.” value (Poa annua; 16 g of a.i./ha) was 40%, the “Herbicidal action in [%] 14 DAT against Poa annua L.” value (Poa annua; 16 g of a.i./ha) was 85% and the Herbicidal action (Poa annua; 28 DAT, 1 g a.i./ha) was 20%. The “Herbicidal action against Poa annua L.” value (Poa annua; 28 DAT, 1 g of a.i./ha) was 15%, the Herbicidal action (Poa annua; 28 DAT, 4 g a.i./ha) was 80% and the Herbicidal action (Poa annua; 28 DAT, 16 g a.i./ha) was 85%. The “Herbicidal action against Poa annua L.” value (Poa annua; 28 DAT, 16 g of a.i./ha) was 40%, the Herbicidal action (Poa annua; 28 DAT, 50 g a.i./ha) was 0% and the “Herbicidal action in [%] 14 DAT against Poa annua L.” value (Poa annua; post-emergence, 14 DAT, 1 g of a.i./ha) was 50%. The “Herbicidal action in [%] 14 DAT against Poa annua L.” value (Poa annua; [1]) was 85%, the “Herbicidal action in [%] 14 DAT against Poa annua L.” value (Poa annua; [2]) was 93% and the “Herbicidal action in [%] 28 DAT against Poa annua L.” value (Poa annua; post-emergence, 28 DAT, 1 g of a.i./ha) was 20%. For the same compound, the “Herbicidal action in [%] 28 DAT against Poa annua L.” value (Poa annua; post-emergence, 28 DAT, 4 g of a.i./ha) was 80%, the “Herbicidal action in [%] 28 DAT against Poa annua L.” value (Poa annua; post-emergence, 28 DAT, 16 g of a.i./ha) was 85% and the “Herbicidal action 21 DAT [%] against Abutilon theophrasti” value (Abutilon theophrasti; 1.7 g of a.i./ha) was 10%. For the same compound, the “Herbicidal action 21 DAT against Abutilon theophrasti” value (Abutilon theophrasti; 1.7 g of a.i./ha) was 0%, the “Herbicidal action 21 DAT against Abutilon theophrasti” value (Abutilon theophrasti; 5 g of a.i./ha) was 30% and the “Herbicidal action 21 DAT [%] against Abutilon theophrasti” value (Abutilon theophrasti; 15 g of a.i./ha) was 35%. The “Herbicidal action 14 DAT against Matricaria inodora” value (Matricaria inodora; 1 g of a.i./ha) was 0%, the “Herbicidal action 28 DAT against Matricaria inodora” value (Matricaria inodora; 1 g of a.i./ha) was 0% and the “Herbicidal action in [%] 28 DAT against Matricaria inodora” value (Matricaria inodora; 1 g of a.i./ha, post-emergence) was 0%. For the same compound, the “Herbicidal action 14 DAT against Matricaria inodora” value (Matricaria inodora; 4 g of a.i./ha) was 30%, the “Herbicidal action 28 DAT against Matricaria inodora” value (Matricaria inodora; 4 g of a.i./ha) was 30% and the “Herbicidal action in [%] 14 DAT against Matricaria inodora” value (Matricaria inodora; 4 g of a.i./ha) was 20%. For the same compound, the “Herbicidal action in [%] 28 DAT against Matricaria inodora” value (Matricaria inodora; 4 g of a.i./ha, post-emergence) was 0%, the Herbicidal action (Matricaria inodora; 14 DAT) was 0% and the “Herbicidal action against Matricaria inodora” value (Matricaria inodora; 14 DAT, 4 g of a.i./ha) was 20%. The “Herbicidal action against Matricaria inodora” value (Matricaria inodora; 14 DAT, 16 g of a.i./ha) was 20%, the “Herbicidal action 14 DAT against Matricaria inodora” value (Matricaria inodora; 16 g of a.i./ha) was 20% and the “Herbicidal action 28 DAT against Matricaria inodora” value (Matricaria inodora; 16 g of a.i./ha) was 15%. The “Herbicidal action in [%] 14 DAT against Matricaria inodora” value (Matricaria inodora; 16 g of a.i./ha) was 20% and 40%, the Herbicidal action (Matricaria inodora; 28 DAT) was 0% and the “Herbicidal action against Matricaria inodora” value (Matricaria inodora; 28 DAT, 1 g of a.i./ha) was 15%. The “Herbicidal action against Matricaria inodora” value (Matricaria inodora; 28 DAT, 16 g of a.i./ha) was 15%, the “Herbicidal action 14 DAT against Matricaria inodora” value (Matricaria inodora; (Z61) post-emergence, g of a.i./ha: 1, 270, 30, 1 + 270, 1 + 30) was 0% and the “Herbicidal action in [%] 14 DAT against Matricaria inodora” value (Matricaria inodora; [1]) was 30%. The “Herbicidal action in [%] 14 DAT against Matricaria inodora” value (Matricaria inodora; [2]) was 40%.
